ChEMBL document CHEMBL4396865, “Current advances of triazole alcohols derived from fluconazole: Design, in vitro and in silico studies” (2019)
In brackets after ≈: the same amount, converted by molar mass.

What was measured:
Format in all cases: functional
[1] = tested on: Candida albicans; assay: Antifungal activity against Candida albicans; conditions: Candida albicans; for MIC: read-out: MIC
[2] = tested on: Pichia kudriavzevii; assay: Antifungal activity against Candida krusei
[3] = tested on: Candida albicans; assay: Potency index, ratio of fluconazole MIC to test compound MIC for Candida albicans
[4] = tested on: Pichia kudriavzevii; assay: Potency index, ratio of fluconazole MIC to test compound MIC for Candida krusei
[5] = tested on: Candida parapsilosis; assay: Antifungal activity against Candida parapsilosis; conditions: Lodderomyces parapsilosis
[6] = tested on: Cryptococcus neoformans; assay: Antifungal activity against Cryptococcus neoformans; conditions: Cryptococcus neoformans
[7] = tested on: Trichophyton rubrum; assay: Potency index, ratio of fluconazole MIC80 to test compound MIC80 for Trichophyton rubrum
[8] = tested on: Nannizzia gypsea; assay: Potency index, ratio of fluconazole MIC80 to test compound MIC80 for Microsporum gypseum
[9] = tested on: Candida albicans; assay: Antifungal activity against Candida albicans ATCC SC5314 after 24 hrs; conditions: ATCC SC5314, 24 h
[10] = tested on: Candida parapsilosis; assay: Antifungal activity against Candida parapsilosis after 24 hrs; conditions: Lodderomyces parapsilosis
[11] = tested on: Pichia kudriavzevii; assay: Antifungal activity against Candida krusei after 24 hrs
[12] = tested on: Cryptococcus neoformans; assay: Antifungal activity against Cryptococcus neoformans after 24 hrs
[13] = tested on: Nannizzia gypsea; assay: Antifungal activity against Microsporum gypseum after 24 hrs
[14] = tested on: Trichophyton rubrum; assay: Antifungal activity against Trichophyton rubrum after 24 hrs
[15] = tested on: Aspergillus fumigatus; assay: Antifungal activity against Aspergillus fumigatus after 24 hrs
[16] = tested on: Candida albicans; assay: Antifungal activity against Candida albicans Y0109 after 24 hrs; conditions: Y0109, 24 h
[17] = tested on: Candida albicans; assay: Antifungal activity against Candida albicans infected in Caenorhabditis elegans assessed as survival at 16 ug/ml relative to control
[18] = tested on: Cryptococcus neoformans; assay: Potency index, ratio of fluconazole MIC to test compound MIC for Cryptococcus neoformans infected in Caenorhabditis elegans
[19] = tested on: Cryptococcus neoformans; assay: Antifungal activity against Cryptococcus neoformans infected in Caenorhabditis elegans
[20] = tested on: Candida albicans; assay: Antifungal activity against fluconalzole-susceptible Candida albicans after 24 hrs
[21] = tested on: Candida parapsilosis; assay: Antifungal activity against fluconalzole-susceptible Candida parapsilosis after 24 hrs; conditions: Lodderomyces parapsilosis
[22] = tested on: Candida albicans; assay: Antifungal activity against fluconalzole-resistant Candida albicans after 24 hrs
[23] = tested on: Candida parapsilosis; assay: Antifungal activity against fluconalzole-resistant Candida parapsilosis after 24 hrs; conditions: Lodderomyces parapsilosis
[24] = tested on: Candida albicans; assay: Antifungal activity against Candida albicans after 24 hrs by NCCLS protocol based method
[25] = tested on: Candida tropicalis; assay: Antifungal activity against Candida tropicalis after 24 hrs by NCCLS protocol based method
[26] = tested on: Cryptococcus neoformans; assay: Antifungal activity against Cryptococcus neoformans after 72 hrs by NCCLS protocol based method
[27] = tested on: Trichophyton rubrum; assay: Antifungal activity against Trichophyton rubrum after 7 days by NCCLS protocol based method; conditions: 168 h
[28] = tested on: Nannizzia gypsea; assay: Antifungal activity against Microsporum gypseum after 7 days by NCCLS protocol based method; conditions: 168 h
[29] = tested on: Candida tropicalis; assay: Antifungal activity against Candida tropicalis; conditions: Candida tropicalis; read-out: MIC
[30] = tested on: Kluyveromyces marxianus; assay: Antifungal activity against Candida kefyr; conditions: Kluyveromyces marxianus; read-out: MIC
[31] = tested on: Trichophyton rubrum; assay: Antifungal activity against Trichophyton rubrum; conditions: Trichophyton rubrum; read-out: MIC
[32] = tested on: Aspergillus fumigatus; assay: Antifungal activity against Aspergillus fumigatus; conditions: Aspergillus fumigatus
[33] = tested on: Candida tropicalis; assay: Antifungal activity against Candida tropicalis after 24 hrs by microbroth dilution method
[34] = tested on: Trichophyton rubrum; assay: Antifungal activity against Trichophyton rubrum after 24 hrs by microbroth dilution method
[35] = tested on: Microsporum canis; assay: Antifungal activity against Microsporum canis after 24 hrs by microbroth dilution method
[36] = tested on: Fonsecaea compacta; assay: Antifungal activity against Fonsecaea compacta after 24 hrs by microbroth dilution method
[37] = tested on: Aspergillus fumigatus; assay: Antifungal activity against Aspergillus fumigatus after 24 hrs by microbroth dilution method
[38] = tested on: Candida albicans; assay: Antifungal activity against Candida albicans infected in Caenorhabditis elegans assessed as survival at 32 ug/ml relative to control

C#CCN(Cc1ccc(F)cc1F)CC(O)(Cn1cncn1)c1ccc(F)cc1F (stereo not drawn)
MIC80 [1]: 0.00097 µg/mL (≈ 0.00232 µM) | MIC80 [2]: 0.00097 µg/mL (≈ 0.00232 µM) | Ratio [3]: 515 | Ratio [4]: 64

OC(CN1CCN(Cc2cn(Cc3ccc(Br)cc3)nn2)CC1)(Cn1cncn1)c1ccc(F)cc1F (stereo not drawn)
MIC80 [1]: ≤ 0.5 µg/mL | MIC80 [5]: ≤ 0.5 µg/mL | MIC80 [6]: ≤ 0.5 µg/mL | Ratio [7]: 4 - 128 | Ratio [8]: 4 - 128

OC(Cc1cn(CCOCc2ccc(Br)cc2)nn1)(Cn1cncn1)c1ccc(F)cc1F (stereo not drawn)
MIC [9]: 0.0156 to 0.0625 µg/mL (≈ 0.03 to 0.12 µM) | MIC [10]: 0.0156 to 0.0625 µg/mL (≈ 0.03 to 0.12 µM) | MIC [11]: 0.0156 to 0.0625 µg/mL (≈ 0.03 to 0.12 µM) | MIC [12]: 0.0156 to 0.0625 µg/mL (≈ 0.03 to 0.12 µM) | MIC [13]: 0.0156 to 0.0625 µg/mL (≈ 0.03 to 0.12 µM) | MIC [14]: 0.0156 to 0.0625 µg/mL (≈ 0.03 to 0.12 µM) | MIC [15]: 0.0156 to 0.0625 µg/mL (≈ 0.03 to 0.12 µM) | MIC [16]: 0.0156 to 0.0625 µg/mL (≈ 0.03 to 0.12 µM)

OC(Cn1cncn1)(Cn1cc(C2CC2)nn1)c1ccc(F)cc1F (stereo not drawn)
MIC [1]: 0.125 µg/mL (≈ 0.361 µM) | survival at 16 µg/mL [17]: 70%

OC(Cc1cn(C2CCCC2)nn1)(Cn1cncn1)c1ccc(F)cc1F (stereo not drawn)
Ratio [18]: 8 | MIC [19]: 0.25 µg/mL (≈ 0.668 µM)

OC(Cn1cncn1)(Cn1cnc(SCc2cccc(Cl)c2)n1)c1ccc(F)cc1F (stereo not drawn)
MIC [20]: 0.063 to 1 µg/mL (≈ 0.136 to 2.16 µM) | MIC [21]: 0.063 to 1 µg/mL (≈ 0.136 to 2.16 µM) | MIC [22]: 0.125 to 16 µg/mL (≈ 0.27 to 34.6 µM) | MIC [23]: 0.125 to 16 µg/mL (≈ 0.27 to 34.6 µM)

OC(Cn1cncn1)(Cn1cncn1)c1ccc(F)cc1F [FLUCONAZOLE]
MIC [24]: 0.5 µg/mL (≈ 1.63 µM) | MIC [25]: 0.5 µg/mL (≈ 1.63 µM) | MIC [26]: 0.5 µg/mL (≈ 1.63 µM) | MIC [27]: 0.5 µg/mL (≈ 1.63 µM) | MIC [28]: 0.5 µg/mL (≈ 1.63 µM) | MIC [1]: 0.5 µg/mL (≈ 1.63 µM) | MIC ([5]; read-out: MIC): 1 µg/mL (≈ 3.27 µM) | MIC [29]: 0.125 to 8 µg/mL (≈ 0.408 to 26.1 µM) | MIC [30]: 0.125 to 8 µg/mL (≈ 0.408 to 26.1 µM) | MIC ([6]; read-out: MIC): 1 µg/mL (≈ 3.27 µM) | MIC [31]: 0.125 to 8 µg/mL (≈ 0.408 to 26.1 µM) | MIC80 [32]: > 200 µM | MIC80 [33]: ≥ 0.5 µg/mL | MIC80 [34]: ≥ 0.5 µg/mL | MIC80 [35]: ≥ 0.5 µg/mL | MIC80 [36]: ≥ 0.5 µg/mL | MIC80 [37]: ≥ 0.5 µg/mL | MIC [20]: 0.5 to 4 µg/mL (≈ 1.63 to 13.1 µM) | MIC [21]: 0.5 to 4 µg/mL (≈ 1.63 to 13.1 µM) | MIC [9]: ≥ 64 µg/mL | MIC [10]: ≥ 64 µg/mL | MIC [11]: ≥ 64 µg/mL | MIC [12]: ≥ 64 µg/mL | MIC [13]: ≥ 64 µg/mL | MIC [14]: ≥ 64 µg/mL | MIC [15]: ≥ 64 µg/mL | MIC [16]: ≥ 64 µg/mL | survival at 32 µg/mL [38]: 60%
